Laboratory results taken from paper PMC6853638, “TMC1 is an essential component of a leak channel that modulates tonotopy and excitability of auditory hair cells in mice” (eLife, 2019).
pIC50: −log10 of the molar value. Several values for one entry are separate records, joined by “and”; a condition that tells them apart may be missing. Equal entries are not always repeated. Where two headings read alike, the source gives them in different places.

Legend:
[1] = target: T1, TMC1-mediated leak conductance (Mus musculus, UniProt Q8R4P5); test: Background/leak current (IBG) inhibition by blockers, whole-cell voltage clamp of OHCs; assay type: cell-based
T1 sequence (Q8R4P5 1-757): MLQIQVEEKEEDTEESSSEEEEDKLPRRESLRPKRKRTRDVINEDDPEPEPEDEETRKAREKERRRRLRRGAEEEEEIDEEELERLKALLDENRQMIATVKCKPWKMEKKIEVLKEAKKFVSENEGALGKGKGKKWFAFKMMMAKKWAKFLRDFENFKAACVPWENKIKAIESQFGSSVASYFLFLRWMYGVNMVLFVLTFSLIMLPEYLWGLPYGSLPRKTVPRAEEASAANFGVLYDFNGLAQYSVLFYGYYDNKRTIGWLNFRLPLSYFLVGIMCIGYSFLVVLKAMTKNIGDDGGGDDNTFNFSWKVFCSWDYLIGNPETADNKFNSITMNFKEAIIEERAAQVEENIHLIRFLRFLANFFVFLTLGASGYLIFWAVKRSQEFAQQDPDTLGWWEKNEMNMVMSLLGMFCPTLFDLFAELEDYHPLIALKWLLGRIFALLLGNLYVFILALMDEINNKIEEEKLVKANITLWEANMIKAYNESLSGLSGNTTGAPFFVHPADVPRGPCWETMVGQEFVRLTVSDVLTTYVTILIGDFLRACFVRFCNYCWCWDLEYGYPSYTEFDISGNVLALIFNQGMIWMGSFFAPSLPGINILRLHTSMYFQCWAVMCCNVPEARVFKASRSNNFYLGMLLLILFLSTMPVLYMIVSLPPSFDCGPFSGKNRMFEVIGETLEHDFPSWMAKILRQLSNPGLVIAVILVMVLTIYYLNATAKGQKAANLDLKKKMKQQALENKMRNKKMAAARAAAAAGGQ
Procedure: (§1) Hair cells were recorded using whole-cell voltage or current clamp as previously described ([Xiong et al., 2012]). All experiments were performed at room temperature (20–25°C). Briefly, the basilar membrane with hair cells was acutely dissected from neonatal mice. […] The acutely isolated or cultured basilar membrane was used for electrophysiological recording within 1 h. Hair cells were imaged under an upright microscope (BX51WI, Olympus, Tokyo, Japan) with a 60 × water immersion objective and an sCMOS camera (ORCA Flash4.0, Hamamatsu, Hamamatsu City, Japan) controlled by MicroManager 1.6 software ([Edelstein et al., 2010]). Patch pipettes were made from borosilicate glass capillaries (BF150-117-10, Sutter Instrument Co., Novato, CA) with a pipette puller (P-2000, Sutter) and polished on a microforge (MF-830, Narishige, Tokyo, Japan) to resistances of 4–6 M'Ω. […] Hair cells were recorded with a patch-clamp amplifier (EPC 10 USB and Patchmaster software, HEKA Elektronik, Lambrecht/Pfalz, Germany).
(§2) The sampling rate was 1 kHz for leak current recording, 50 kHz for the IV protocol and current-clamp recording, and 100 kHz for unitary channel recording. The voltage-clamp used a –70 mV holding potential, and the current-clamp was held at 0 pA. Only recordings with a current baseline <20 pA in NMDG solution were used for statistical analysis.
(§3) Dose-inhibition curves were fitted with a Hill equation: Ix/Imax=X^h/(K^h+X^h))
(§4) Where K is the half-inhibition dose (IC50) and h is the Hill slope. Imax is the maximal current in control condition.

MET channel [2] = system: MET channel; parameters: method as in Kim and Fettiplace, 2013; details: P5 apical OHCs; ref Kim and Fettiplace, 2013; cited from earlier work
MET channel [3] = target: T2, MET channel (Mus musculus, UniProt Q8R4P5); test: MET current in graded Ca2+ and Na+ concentrations; assay type: cell-based; details: wild-type OHCs
T2 construct: the basilar membrane with hair cells was acutely dissected from neonatal mice; endogenous in cells; host or cells: outer hair cells of acutely dissected neonatal mouse cochlea
T2 sequence (Q4KL25 whole entry partner, one chain of several): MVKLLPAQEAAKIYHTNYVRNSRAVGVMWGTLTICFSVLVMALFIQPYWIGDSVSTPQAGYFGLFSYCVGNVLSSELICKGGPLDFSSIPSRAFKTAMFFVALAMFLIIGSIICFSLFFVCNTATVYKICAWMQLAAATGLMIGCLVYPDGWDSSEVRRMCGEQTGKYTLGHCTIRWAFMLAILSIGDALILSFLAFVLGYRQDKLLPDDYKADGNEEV
T2 sequence (Q8K467 29-153 partner, one chain of several): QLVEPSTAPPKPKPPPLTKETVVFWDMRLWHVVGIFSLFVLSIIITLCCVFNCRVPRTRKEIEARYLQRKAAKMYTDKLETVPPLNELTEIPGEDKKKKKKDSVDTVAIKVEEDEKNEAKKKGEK
T2 sequence (Q9Z309 whole entry partner, one chain of several): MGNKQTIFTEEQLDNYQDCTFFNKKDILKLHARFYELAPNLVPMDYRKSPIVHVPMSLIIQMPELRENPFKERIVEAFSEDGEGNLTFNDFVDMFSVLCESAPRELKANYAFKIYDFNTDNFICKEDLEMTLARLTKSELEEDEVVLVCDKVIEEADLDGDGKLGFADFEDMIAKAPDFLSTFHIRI
Procedure: as §1
The hair bundle was deflected by two types of mechanical stimulus, fluid jet and glass probe. […] The hair-bundle-removed OHCs with good condition were further recorded. Examined by a fluid-jet stimulation, the OHCs without obvious MET current were further measured for the leak current. […]

leak current in OHCs = target: T3, leak current in OHCs (Mus musculus, UniProt Q8R4P5); test: Ion-permeation tests of the leak current (ion substitution in the external solution); assay type: cell-based; details: 150 mM NaCl partially or completely replaced (150 mM CsCl; 75 mM Ca2+); compared with Na+
T3 construct: the basilar membrane with hair cells was acutely dissected from neonatal mice; endogenous in cells; host or cells: outer hair cells of acutely dissected neonatal mouse cochlea
T3 sequence (Q8R4P5 1-757): T1 sequence (Q8R4P5 1-757)
Procedure: (§5) Hair cells were recorded using whole-cell voltage or current clamp as previously described ([Xiong et al., 2012]). All experiments were performed at room temperature (20–25°C). Briefly, the basilar membrane with hair cells was acutely dissected from neonatal mice. […] The acutely isolated or cultured basilar membrane was used for electrophysiological recording within 1 h. Hair cells were imaged under an upright microscope (BX51WI, Olympus, Tokyo, Japan) with a 60 × water immersion objective and an sCMOS camera (ORCA Flash4.0, Hamamatsu, Hamamatsu City, Japan) controlled by MicroManager 1.6 software ([Edelstein et al., 2010]). Patch pipettes were made from borosilicate glass capillaries (BF150-117-10, Sutter Instrument Co., Novato, CA) with a pipette puller (P-2000, Sutter) and polished on a microforge (MF-830, Narishige, Tokyo, Japan) to resistances of 4–6 M'Ω. Intracellular solution contained (in mM): 140 CsCl, 1 MgCl2, 0.1 EGTA, 2 Mg-ATP, 0.3 Na-GTP, and 10 H-HEPES, pH 7.2), except when CsCl was replaced with KCl in current-clamp. Hair cells were recorded with a patch-clamp amplifier (EPC 10 USB and Patchmaster software, HEKA Elektronik, Lambrecht/Pfalz, Germany).
(§6) In Figure 6A, LiCl and CsCl were 150 mM, completely substituting for NaCl.

MET channel [4] = test: Unitary MET channel current recording in OHCs; assay type: cell-based, mouse
Excerpt: (§7) For single-channel recordings, we followed published procedures ([Ricci et al., 2003]; [Xiong et al., 2012]). The intracellular solution was the same for macroscopic and microscopic current recording. […] After bundle destruction, fresh external solution was given to re-establish the corresponding extracellular ionic environment. […] Only traces with obvious single-channel events were included for analyzing.
as §2
(§8) The hair bundle was deflected by two types of mechanical stimulus, fluid jet and glass probe. The fluid jet stimulation was performed as described previously ([Beurg et al., 2014]). In brief, a 40 Hz sinusoidal wave stimulus was delivered by a 27-mm-diameter piezoelectric disc driven by a home-made piezo amplifier pipette with a tip diameter of 3–5 μm positioned 5–10 μm from the hair bundle to evoke maximum MET currents. […] The actuator was driven with voltage steps that were low-pass filtered at 10 KHz. To avoid bundle damage caused by overstimulation, the glass probe was shaped to have a slightly smaller diameter than the hair bundles, and the stimulation distance was 800 nm for macroscopic current and 100 nm for unitary channel recording. For hair bundle removal, a pipette with 1 μm diameter tip was used to suck away the hair bundles of the target OHCs. The hair-bundle-removed OHCs with good condition were further recorded. Examined by a fluid-jet stimulation, the OHCs without obvious MET current were further measured for the leak current.

MET channel [5] = target: T2, MET channel; test: Location-specific macroscopic MET current in OHCs, fluid-jet stimulation; assay type: cell-based; details: wild-type OHCs in 35 mM Ca2+
Procedure: as §5, §7
The sampling rate was 1 kHz for leak current recording, 50 kHz for the IV protocol and current-clamp recording, and 100 kHz for unitary channel recording. […]
(§9) The hair bundle was deflected by two types of mechanical stimulus, fluid jet and glass probe. […] The hair-bundle-removed OHCs with good condition were further recorded. Examined by a fluid-jet stimulation, the OHCs without obvious MET current were further measured for the leak current.

leak current = target: T4, leak current (Mus musculus, UniProt Q8R4P5); test: Background leak current in graded Ca2+ and Na+ concentrations (wild-type and Tmc1-knockout OHCs); assay type: cell-based; details: 35 mM [Ca2+]o
T4 construct: the basilar membrane with hair cells was acutely dissected from neonatal mice; endogenous in cells; host or cells: outer hair cells of acutely dissected neonatal mouse cochlea
T4 sequence (Q8R4P5 1-757): T1 sequence (Q8R4P5 1-757)
Procedure: as §5, §6
The osmotic pressure of each solution was re-adjusted to 300–320 mOsm/kg with sucrose, and the pH was adjusted to 7.4.

MET channel [6] = target: T2, MET channel; test: MET current (IMET) inhibition by blockers, whole-cell voltage clamp of OHCs with glass-probe hair-bundle deflection; assay type: cell-based
Procedure: All experiments were performed at room temperature (20–25°C). Briefly, the basilar membrane with hair cells was acutely dissected from neonatal mice. […] The acutely isolated or cultured basilar membrane was used for electrophysiological recording within 1 h. […] Hair cells were recorded with a patch-clamp amplifier (EPC 10 USB and Patchmaster software, HEKA Elektronik, Lambrecht/Pfalz, Germany).
as §2
as §8, with “The fluid jet stimulation was performed as described previously ([Beurg et al., 2014]).” left out
as §3, §4

[7] = target: T5, TMC1-mediated leak current (Mus musculus, UniProt Q8R4P5); test: MET-independent leak current (ILeak) in OHCs, MET channel closed by fluid jet or 100 μM DHS, NMDG subtraction (also by cochlear location and age); assay type: cell-based; details: 0.3 mM Ca2+
T5 construct: the basilar membrane with hair cells was acutely dissected from neonatal mice; endogenous in cells; host or cells: outer hair cells of acutely dissected neonatal mouse cochlea
T5 sequence (Q8R4P5 1-757): T1 sequence (Q8R4P5 1-757)
Procedure: Thus, the IBG may come from the resting MET current. […] A sinusoidal fluid jet deflected the hair bundle back and forth to open and close the MET channels (Figure 3A, inset). The Im was 98 pA at rest (Figure 3A,B), while the Im was 45 pA at fluid-jet-closed status (Figure 3B, #1). […] Thus, the ILeak persisted in either mechanical closure or pharmacological blockade of the MET channel (Figure 3C).
as §5
The sampling rate was 1 kHz for leak current recording, 50 kHz for the IV protocol and current-clamp recording, and 100 kHz for unitary channel recording. The voltage-clamp used a –70 mV holding potential, and the current-clamp was held at 0 pA. […]
as §9

[8] = OHCs, […] Ca2+, holding −70 mV, Hill fit; read-out: IC50, IBG (leak conductance)

Compound: N=C(N)NC(=O)c1nc(Cl)c(N)nc1N [Amiloride, amiloride]
- effect on the leak current compared with the MET current ([1]; graded concentrations): affected the leak current, albeit at higher concentrations than the MET current

Compound: [Ca+2].[Cl-].[Cl-] [Ca^2+, CaCl2]
- Ca2+ permeability of the MET channel, PCa/PCs (MET channel [2]): around six
- [Ca2+]o after which the MET current reached a plateau, sufficient to block the leak current (MET channel [3]): > 10 mM
- size of ILeak conducted by the substituted cation (leak current in OHCs): robustly blocked
- unitary MET channel current (MET channel [4]; 35 mM Ca2+, location D05, holding −70 mV): –4.7 ± 0.1 pA
- unitary MET channel current (MET channel [4]; 35 mM Ca2+, location D20, holding −70 mV): –4.8 ± 0.1 pA
- unitary MET channel current (MET channel [4]; 35 mM Ca2+, location D60, holding −70 mV): –4.9 ± 0.1 pA
- unitary MET channel current (MET channel [4]; 35 mM [Ca2+]o, both low-frequency and high-frequency OHCs): ~ 5 pA
- macroscopic IMET (MET channel [5]; location D05, holding −70 mV): –369 ± 13 pA
- macroscopic IMET (MET channel [5]; location D40, holding −70 mV): –384 ± 30 pA
- macroscopic IMET (MET channel [5]; location D60, holding −70 mV): –461 ± 31 pA
- block of the leak current (leak current): sufficient to block the leak current to an extent similar to TMC1 removal in OHCs

Compound: [Cl-].[Cs+] [Cs^+, CsCl]
- size of ILeak conducted by the substituted cation (leak current in OHCs): slightly larger

Compound: CN[C@@H]1[C@H](O[C@H]2[C@H](O[C@H]3[C@H](O)[C@@H](O)[C@H](NC(=N)N)[C@@H](O)[C@@H]3NC(=N)N)O[C@@H](C)[C@]2(O)CO)O[C@@H](CO)[C@H](O)[C@H]1O [DHS, dihydrostreptomycin]
- pIC50 (MET channel [6]; read-out: IC50, IMET): 4.82
- blocking effect on the current baseline ([1]; 100 μM, working concentration that blocks MET channels): no blocking effect
- Leak (normalized) ([1]; DHS 100 μM): 0.7251 and 0.66 and 1.086 and 0.62 and 0.8723 and 0.8832 and 0.9258
- pIC50 [1, 8]: 3.31
- DHS-NMDG (ILeak subtracted from that closed by 100 μM DHS), mean ± SEM ([7]; holding −70 mV): –65 ± 6 pA
- membrane current in 144 Na + 0.1 DHS (IDHS) ([7]; holding −70 mV): 55 pA
- DHS-NMDG subtracted current, individual cells ([7]; source data of Figure 3C): -80.6086 pA and -48.8286 pA and -49.155 pA and -61.767 pA and -98.5004 pA and -60.6081 pA and -57.9458 pA and -59.6138 pA

Compound: [Gd+3] [Gd3+]
- MET (normalized), first block c1-c15 (MET channel [6]; Gd3+ 4000): 0.01958 and 0.0181 and 0.03486 and 0.01803 and 0.02788 and 0.02096 and 0.03255

Compound: [Cl][Gd]([Cl])[Cl] [Gd^3+, GdCl3]
- effect on the leak current ([1]; [Gd3+]o up to 80 μM): not affected

Compound: [La+3] [La3+]
- met (normalized) (MET channel [6]; La3+ 4000): 0.01513 and 0.01398 and 0.02694 and 0.01393 and 0.02154 and 0.01619 and 0.02515

Compound: [Cl][La]([Cl])[Cl] [La^3+, LaCl3]
- pIC50 (MET channel [6]; OHCs, 800 nm step deflection, […] Ca2+, holding −70 mV, Hill fit, read-out: IC50, IMET): 3.59
- pIC50 [1, 8]: 3.27

Compound: COc1cc2c3cc1Oc1cc(ccc1O)C[C@@H]1c4c(cc(OC)c(O)c4Oc4ccc(cc4)C[C@@H]3N(C)CC2)CC[N+]1(C)C [dTC, d-tubocurarine]
- pIC50 (MET channel [6]): 5.22
- Leak nor ([1]; dTC 0.01): 1.062 and 1.003 and 1.024 and 0.9706 and 0.8444 and 0.8511 and 0.9123
- effect on the leak current compared with the MET current ([1]; graded concentrations): affected the leak current, albeit at higher concentrations than the MET current
- pIC50 ([1]; read-out: IC50, IBG (leak conductance); OHCs, […] Ca2+, holding −70 mV, Hill fit): 4.09
